Assay [1] deals with T1, hNET (Homo sapiens, UniProt P23975). Briefly: hNET membrane radioligand binding assay (3H-nisoxetine), Assay 1.
The target in assay [2] is T2, hSERT (Homo sapiens, UniProt P31645). Briefly: hSERT membrane radioligand binding assay (3H-citalopram), Assay 1. The settings on record: SERT pKi, hSERT HEK-293 membranes, 1.0 nM 3H-citalopram; values given as lower bounds.
In assay [3] the target is T1, hNET. Briefly: hNET neurotransmitter uptake assay (3H-NE), Assay 2. The assay is classed as cell-based. More on the design: expressed in transfected cells; host or cells: HEK-293. The settings on record: norepinephrine reuptake inhibition, 3H-NE uptake, HEK-293 hNET cells (values without asterisk); read-out: NET pIC50 (converted).
For assay [4], the target named is T2, hSERT. Briefly: hSERT neurotransmitter uptake assay (3H-5-HT), Assay 2. More on the design: expressed in transfected cells; host or cells: HEK-293. The assay is classed as cell-based. The settings on record: serotonin reuptake inhibition, 3H-5-HT uptake, HEK-293 hSERT cells (values without asterisk); read-out: SERT pIC50 (converted).

Here are results for 13 compounds from patent US7994209B2, “3-phenoxymethylpyrrolidine compounds” (Theravance, Inc., priority 2009, dated 2011).

Molecules are shown by their SMILES. Some results are limits rather than exact numbers.

T1 sequence (P23975 whole entry): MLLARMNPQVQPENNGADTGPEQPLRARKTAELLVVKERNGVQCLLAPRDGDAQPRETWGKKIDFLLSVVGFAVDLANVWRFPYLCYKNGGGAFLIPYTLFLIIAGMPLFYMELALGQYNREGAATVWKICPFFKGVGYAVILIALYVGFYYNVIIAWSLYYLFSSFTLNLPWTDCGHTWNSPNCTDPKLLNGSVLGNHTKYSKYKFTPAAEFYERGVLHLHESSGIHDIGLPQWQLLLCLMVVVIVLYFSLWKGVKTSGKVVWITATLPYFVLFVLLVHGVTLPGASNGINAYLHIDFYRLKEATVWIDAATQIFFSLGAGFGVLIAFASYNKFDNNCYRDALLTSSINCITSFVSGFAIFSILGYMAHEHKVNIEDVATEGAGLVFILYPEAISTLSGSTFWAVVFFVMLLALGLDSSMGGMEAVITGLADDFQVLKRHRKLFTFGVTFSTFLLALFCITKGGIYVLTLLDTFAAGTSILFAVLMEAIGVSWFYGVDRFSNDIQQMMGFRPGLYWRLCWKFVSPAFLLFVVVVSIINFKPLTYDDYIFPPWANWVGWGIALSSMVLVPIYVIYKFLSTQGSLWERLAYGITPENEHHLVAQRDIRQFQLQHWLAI
T2 sequence (P31645 whole entry): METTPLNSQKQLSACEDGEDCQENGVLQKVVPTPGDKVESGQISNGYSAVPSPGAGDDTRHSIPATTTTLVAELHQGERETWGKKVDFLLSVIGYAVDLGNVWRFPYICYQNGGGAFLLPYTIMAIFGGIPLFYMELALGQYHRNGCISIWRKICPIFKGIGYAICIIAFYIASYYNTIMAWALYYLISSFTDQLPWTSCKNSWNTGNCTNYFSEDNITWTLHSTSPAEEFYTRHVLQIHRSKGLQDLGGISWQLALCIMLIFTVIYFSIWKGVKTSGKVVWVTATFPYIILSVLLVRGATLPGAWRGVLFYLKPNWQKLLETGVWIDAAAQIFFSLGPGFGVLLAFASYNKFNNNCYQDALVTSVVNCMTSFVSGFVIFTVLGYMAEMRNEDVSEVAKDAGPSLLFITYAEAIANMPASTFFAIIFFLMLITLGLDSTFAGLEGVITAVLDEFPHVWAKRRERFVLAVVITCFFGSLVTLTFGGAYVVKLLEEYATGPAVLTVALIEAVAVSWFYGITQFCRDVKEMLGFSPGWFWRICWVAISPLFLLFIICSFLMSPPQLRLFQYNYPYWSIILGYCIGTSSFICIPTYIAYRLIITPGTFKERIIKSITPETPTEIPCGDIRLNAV

Take `CCC[C@H](Oc1c(Cl)ccc(Cl)c1Cl)[C@H]1CCNC1` [Example 4-27, (S)-3-[(S)-1-(2,3,6-Trichlorophenoxy)butyl]pyrrolidine]: the Ki in assay [1] and in assay [2] was not above 10 nM each time. Also, the IC50 in assay [3] and in assay [4] was not above 10 nM in each case.
For `CC(C)CC(Oc1cccc(C(F)(F)F)c1)C1CCNC1` (stereo not shown) [Example 10-7, 3-[3-Methyl-1-(3-trifluoromethylphenoxy)butyl]pyrrolidine], the Ki (commonly the dissociation constant of the complex between target and ligand, obtained from inhibition or displacement) in assay [1] is not above 100 nM; in assay [2] it was not above 10 nM. The IC50 in assay [3] and in assay [4] was not above 100 nM each time.
Turning to `CC(C)C[C@@H](Oc1ccc(Cl)cc1)[C@H]1CCNC1` [Example 10-11, (S)-3-[(R)-1-(4-Chlorophenoxy)-3-methylbutyl]pyrrolidine], the inhibition constant (Ki) in assay [1] and in assay [2] was not above 10 nM in each case. The IC50 in assay [3] and in assay [4] was not above 10 nM throughout.
As to `CC[C@H](Oc1c(F)cc(F)cc1F)[C@H]1CCNC1` [Example 2-55, (S)-3-[(S)-1-(2,4,6-Trifluorophenoxy)propyl]pyrrolidine], the inhibition constant (Ki) in assay [1] and in assay [2] was not above 10 nM each time. Also, the IC50 is not above 10 nM in assay [3] and not above 100 nM in assay [4].
Turning to `CC(C)CC(Oc1cccc(Cl)c1C(F)(F)F)C1CCNC1` (stereo not shown) [Example 10-35, 3-[1-(3-Chloro-2-trifluoromethylphenoxy)-3-methylbutyl]pyrrolidine], the Ki in assay [1] and in assay [2] was not above 10 nM each time. The IC50 in assay [3] and in assay [4] was not above 10 nM throughout.
On to `CC[C@H](Oc1ccc(Cl)cc1OC)[C@H]1CCNC1` [Example 2-68, (S)-3-[(S)-1-(4-Chloro-2-methoxyphenoxy)propyl]pyrrolidine], for which the Ki in assay [1] and in assay [2] was not above 10 nM in each case. The IC50 in assay [3] and in assay [4] was not above 10 nM in each case.
On to `CC[C@H](Oc1ccc(Cl)c(F)c1Cl)[C@H]1CCNC1` [Example 2-42, (S)-3-[(S)-1-(2,4-Dichloro-3-fluorophenoxy)propyl]pyrrolidine], for which the Ki in assay [1] and in assay [2] was not above 10 nM throughout. Further, the IC50 in assay [3] and in assay [4] was not above 10 nM throughout.
`CC(C)[C@H](Oc1ccc(Cl)cc1)[C@H]1CCNC1` [Example 5, (S)-3-[(S)-1-(4-Chlorophenoxy)-2-methylpropyl]pyrrolidine]: the Ki in assay [1] and in assay [2] was not above 10 nM throughout. In addition, the IC50 in assay [3] and in assay [4] was not above 10 nM each time.
Take `CC(C)CC(Oc1ccc(Cl)cc1C(F)(F)F)C1CCNC1` (stereo not shown) [Example 10-48, 3-[1-(4-Chloro-2-trifluoromethylphenoxy)-3-methylbutyl]pyrrolidine]: the Ki in assay [1] and in assay [2] was not above 10 nM in each case. Moreover, the IC50 in assay [3] and in assay [4] was not above 10 nM each time.
For the compound `Clc1cc(Cl)cc(O[C@H](C2CC2)[C@H]2CCNC2)c1` [Example 16-97, (S)-3-[(R)cyclopropyl-(3,5-dichlorophenoxy)methyl]pyrrolidine], the Ki in assay [1] and in assay [2] was not above 10 nM throughout. Also, the IC50 in assay [3] and in assay [4] was not above 10 nM throughout.
On to `Cc1ccccc1O[C@@H](C1CC1)[C@H]1CCNC1` [Example 16-3, (S)-3-((S)cyclopropyl-o-tolyloxymethyl)pyrrolidine], for which the Ki is not above 10 nM in assay [1] and not above 100 nM in assay [2]. Further, the IC50 was not above 10 nM in assay [3] and not above 316 nM in assay [4].
For `CC(C)CC(Oc1c(Cl)cccc1Cl)C1CCNC1` (stereo not shown) [Example 10-53, 3-[1-(2,6-Dichlorophenoxy)-3-methylbutyl]pyrrolidine], the inhibition constant (Ki) in assay [1] and in assay [2] was not above 10 nM in each case. For the same compound, the IC50 in assay [3] and in assay [4] was not above 10 nM in each case.
Regarding `CC[C@H](Oc1ccccc1C)[C@H]1CCNC1` [Example 2-62, (S)-3-((S)-1-o-Tolyloxypropyl)pyrrolidine], the Ki in assay [1] and in assay [2] was not above 10 nM in each case. Also, the figures for the IC50 in assay [3] and in assay [4] were not above 10 nM and not above 100 nM, respectively.
